In US11180510B2, “Xanthine derivatives and uses thereof as inhibitors of bromodomains of BET proteins” (Centre national de la recherche scientifique, priority 2017, dated 2021) one finds IC50 data, which are given here for 47 compounds.

Structures are written as SMILES. Counter-ions that a name gives are not always drawn. Bounds are passed on as bounds.

In the test the target is BRD4(BD1) (Homo sapiens, UniProt O60885). Kind of test: HTRF assay, BRD4(BD1)/histone peptide interaction. In kind it is binding. More on the design: made in house. To be noted: HTRF; triplicates; NA = IC50 > maximal concentration of compound used. Here is the method:
HTRF assays were performed in white 384 Well Small Volume™ HiBase Polystyrene Microplates (Greiner) with a total working volume of 20 μL. Compounds were dispensed, with 100 nL per well (0.5% final DMSO), from a concentration stock of 10 mM in 100% DMSO and with serial DMSO dilutions, using an Echo® 550 robot from the Access Labcyte platform (Labcyte) and based on the transfer of liquid by acoustic wave. Then, 19.5 μL of buffer is added, using a Multidrop Combi (Thermo Fisher Scientific). […] All HTRF reagents (donor and acceptor) were purchased from CisBio Bioassays and reconstituted according to the supplier protocols. The peptide was purchased from Genic Bio Synthetic. The BRD4(1) protein was produced and purified in the laboratory.
Percentage of inhibition was calculated using the following equation: % inhibition=[(compound signal)−(min signal)]/[(max signal)−(min signal)]*100, where ‘max signal’ is the signal ratio with the compound vehicle alone (DMSO) and ‘min signal’ the signal ratio without peptide.
Selectivity profiles of bromodomain inhibitors were performed as described in HTRF screen section. […] HTRF detection reagents (EPIgeneous™ Binding Domain kits) were purchased from Cisbio Bioassays and used according to supplier's protocol. GST tagged bromodomain proteins were purchased from BPS Bioscience and histone peptide from Genic Bio Synthetic.
(Time-resolved FRET reads energy transfer from a long-lived donor to a nearby acceptor.)
In the case of `CCCn1cc(C(=O)NCc2ccc(Cn3c(=O)[nH]c(=O)c4c3ncn4CC)cc2)cn1` [Compound 33c, N-(4-((7-ethyl-2,6-dioxo-1H-purin-3(2H,6H,7H)-yl)methyl)benzyl)-1-propyl-1H-pyrazole-4-carboxamide], the IC50 turned out to be 4.5 µM. The compound `O=C1CCCc2cc(S(=O)(=O)NCc3ccc(C(=O)NCc4cccnc4)cc3)ccc2N1` [Compound 14b] yielded an IC50 of more than 25 µM. The figure for `CCn1cnc2c1c(=O)[nH]c(=O)n2Cc1ccc(CNS(=O)(=O)c2cccc(NC(C)=O)c2)cc1` [Compound 31b] is 0.723 µM; for `CCn1cnc2c1c(=O)[nH]c(=O)n2Cc1ccc(CNS(=O)(=O)CCOC)cc1` [Compound 21b] it is 5.2 µM. The result for `CS(=O)(=O)NCC1CCC(C(=O)NCCc2cccs2)CC1` (centres unmarked) [Compound 8c] reads 18 µM; that for `O=C1CCCc2cc(S(=O)(=O)NCc3ccc(C(=O)NCc4cccc(O)c4)cc3)ccc2N1` [Compound 15b], 46 µM; that for `CCn1cnc2c1c(=O)[nH]c(=O)n2Cc1ccc(CNC(=O)C2CCN(C)C2)cc1` (centres unmarked) [Compound 34a], 4.3 µM. The figure for `CCn1cnc2c1c(=O)[nH]c(=O)n2Cc1ccc(CNC(=O)C2CCCC(O)C2)cc1` (centres unmarked) [Compound 35a] is 2.8 µM; for `CCC[C@H](N)C(=O)NCc1ccc(Cn2c(=O)[nH]c(=O)c3c2ncn3CC)cc1` [Compound 42a] it is more than 50 µM; for `CCCC(=O)N1CCC(C(=O)NCc2ccc(Cn3c(=O)[nH]c(=O)c4c3ncn4CC)cc2)CC1` [Compound 34b] it is 2.8 µM. `CCn1cnc2c1c(=O)[nH]c(=O)n2Cc1ccc(CNC(=O)C2CCCC(N)C2)cc1` (centres unmarked) [Compound 42b] yielded an IC50 of 32 µM.

In the case of `CCn1cnc2c1c(=O)[nH]c(=O)n2Cc1ccc(CNS(=O)(=O)c2ccccc2)cc1` [Compound 29a], the IC50 is 1.6 µM. The figure for `CCn1cnc2c1c(=O)[nH]c(=O)n2Cc1ccc(CNC(=O)c2ccc(Oc3ccccc3)cc2)cc1` [Compound 37a] is 2 µM; for `CCCS(=O)(=O)NCc1ccc(Cn2c(=O)[nH]c(=O)c3c2ncn3CC)cc1` [Compound 20c] it is 3.6 µM; for `CCn1cnc2c1c(=O)[nH]c(=O)n2Cc1ccc(CNC(=O)[C@H]2CC[C@H](CN)CC2)cc1` [Compound 41a] it is more than 50 µM. The result for `CCn1cnc2c1c(=O)[nH]c(=O)n2Cc1ccc(CNS(=O)(=O)CCCN2CCOCC2)cc1` [Compound 22b] reads 7.5 µM; that for `CCn1cnc2c1c(=O)[nH]c(=O)n2Cc1ccc(CNC(=O)CCC2CC2)cc1` [Compound 33b], 4.7 µM. The figure for `CCn1cnc2c1c(=O)[nH]c(=O)n2Cc1ccc(CNS(=O)(=O)c2ccn(C(C)C)n2)cc1` [Compound 24a] is 2.7 µM; for `O=C1CCCc2cc(S(=O)(=O)N3CCC(C(=O)NCc4cccs4)CC3)ccc2N1` [Compound 11b] it is more than 50 µM. Turning to `CCc1nc(S(=O)(=O)NCc2ccc(Cn3c(=O)[nH]c(=O)c4c3ncn4CC)cc2)cn1C` [Compound 23c], 1.3 µM corresponded to half-maximal inhibition (IC50). The result for `CCn1cnc2c1c(=O)[nH]c(=O)n2Cc1ccc(CNS(=O)(=O)CC2CCCC2)cc1` [Compound 21c] reads 1.4 µM. The result for `CCn1cnc2c1c(=O)[nH]c(=O)n2Cc1ccc(CNS(=O)(=O)c2ccc(C)cc2)cc1` [Compound 28c] reads 0.687 µM; that for `CCC[C@@H](N)C(=O)NCc1ccc(Cn2c(=O)[nH]c(=O)c3c2ncn3CC)cc1` [Compound 40b], 32 µM; that for `CCn1cnc2c1c(=O)[nH]c(=O)n2Cc1ccc(CNC(=O)C2CCC(CO)CC2)cc1` (centres unmarked) [Compound 35b], 7 µM. The figure for `CCn1cnc2c1c(=O)[nH]c(=O)n2Cc1ccc(CNS(=O)(=O)c2ccc3c(c2)n(C)c(=O)n3C)cc1` [Compound 26b] is 0.769 µM.

In the case of `CCn1cnc2c1c(=O)[nH]c(=O)n2Cc1ccc(CNS(=O)(=O)c2ccc(OC)cc2)cc1` [Compound 30b], 0.687 µM corresponded to half-maximal inhibition (IC50). The figure for `CCn1cnc2c1c(=O)[nH]c(=O)n2Cc1ccc(CNC(=O)[C@H](CC2CC2)NC(=O)OC(C)(C)C)cc1` [Compound 38c] is 5.5 µM; for `CCn1cnc2c1c(=O)[nH]c(=O)n2Cc1ccc(CNS(=O)(=O)c2ccc3c(c2)CCN3C(C)=O)cc1` [Compound 26c] it is 0.817 µM; for `CCn1cnc2c1c(=O)[nH]c(=O)n2Cc1ccc(CNS(C)(=O)=O)cc1` [Compound 20b] it is 4.3 µM. As to `CCn1cnc2c1c(=O)[nH]c(=O)n2Cc1ccc(CNC(=O)[C@@H]2CCC[C@H](NC(=O)OC(C)(C)C)C2)cc1` [Compound 39c], the IC50 turned out to be 1.5 µM.

Regarding `CCn1cnc2c1c(=O)[nH]c(=O)n2Cc1ccc(CNC(=O)[C@@H]2CCCNC2)cc1` [Compound 41c], the IC50 is more than 50 µM.

As to `CCC[C@H](NC(=O)OC(C)(C)C)C(=O)NCc1ccc(Cn2c(=O)[nH]c(=O)c3c2ncn3CC)cc1` [Compound 39b], inhibition was half-maximal at 2.3 µM (IC50).

Take `CCn1cnc2c1c(=O)[nH]c(=O)n2Cc1ccc(CNS(=O)(=O)c2cn(C)cn2)cc1` [Compound 23a]: the IC50 turned out to be 3.5 µM. The result for `CCn1cnc2c1c(=O)[nH]c(=O)n2Cc1ccc(CNC(=O)[C@@H]2C[C@@H](c3ccccc3)CN2C(=O)OC(C)(C)C)cc1` [Compound 38a] reads 1.7 µM; that for `O=C1CCCc2cc(S(=O)(=O)NCC3CCC(C(=O)NCc4ccccn4)CC3)ccc2N1` (centres unmarked) [Compound 6a], 29 µM; that for `CCn1cnc2c1c(=O)[nH]c(=O)n2Cc1ccc(CNC(=O)CCC(C)C)cc1` [Compound 36a], 2.2 µM. For the compound `CCn1cnc2c1c(=O)[nH]c(=O)n2Cc1ccc(CNS(=O)(=O)CC(C)C)cc1` [Compound 21a], the half-inhibitory concentration (IC50) worked out at 2.9 µM.

`O=C1CCCc2cc(S(=O)(=O)NCC3CCC(C(=O)NCc4cccs4)CC3)ccc2N1` (centres unmarked) [Compound 5a] returned an IC50 of more than 50 µM. The figure for `CCn1cnc2c1c(=O)[nH]c(=O)n2Cc1ccc(CNC(=O)[C@@H]2C[C@@H](c3ccccc3)CN2)cc1` [Compound 40c] is 13 µM. Regarding `CCn1cnc2c1c(=O)[nH]c(=O)n2Cc1ccc(CNS(=O)(=O)c2cn(C)c(C)n2)cc1` [Compound 23b], inhibition was half-maximal at 1.7 µM (IC50).

For the compound `O=C1CCCc2cc(S(=O)(=O)NCC3CCC(C(=O)NCc4cccc(O)c4)CC3)ccc2N1` (centres unmarked) [Compound 7c], the IC50 was determined as 23 µM. The result for `Cc1noc(C)c1CNC(=O)C1CCC(CNS(=O)(=O)c2ccc3c(c2)CCCC(=O)N3)CC1` (centres unmarked) [Compound 8a] reads 22 µM; that for `CCn1cnc2c1c(=O)[nH]c(=O)n2Cc1ccc(CNS(=O)(=O)CCN2CCOCC2)cc1` [Compound 22a], 4.5 µM; that for `CCn1cnc2c1c(=O)[nH]c(=O)n2Cc1ccc(CNS(=O)(=O)c2cc(-c3ccno3)ccc2C)cc1` [Compound 27a], 1.3 µM. The result for `CCn1cnc2c1c(=O)[nH]c(=O)n2Cc1ccc(CNC(=O)[C@@H](N)CC2CC2)cc1` [Compound 41b] reads more than 50 µM; that for `CCn1cnc2c1c(=O)[nH]c(=O)n2Cc1ccc(CNS(=O)(=O)c2ccc3oncc3c2)cc1` [Compound 26a], 2.2 µM; that for `CCn1cnc2c1c(=O)[nH]c(=O)n2Cc1ccc(CN)cc1` [Compound 20a, 3-(4-(aminomethyl)benzyl)-7-ethyl-1H-purine-2,6(3H,7H)-dione trifluoroacetic salt], 27 µM.

By IC50 is commonly meant the concentration that gives 50% inhibition. A high value points to weaker potency in that assay.
